Several values for one entry are separate records, joined by “and”; a condition that tells them apart may be missing. Equal entries are not always repeated.
Tested on: nematodes
Experiment: Nematicide laboratory bioassay in ELISA plates, nematode mortality 24 h after treatment
Type: in vivo
Protocol: Bioassays were designed to determine the efficacy of tested formulations, and included the following steps: • 1. nematode extraction from carrot disks using the mesh extraction method; • 2. counting of extracted nematodes in a sample of 100 μL of water; • 3. preferably, nematode count in such a sample is between 40-80 nematodes; • 4. determining efficacy in ELISA plates; • 5. preparing a stock solution that is 10 times more diluted than the main formulation for all treatments; • 6. for treatments tested at 5% or 1.5%, aliquots of 50 μL or 15 μL of the corresponding stock solution were introduced to a well, respectively. Volume was completed with 50 μL of the nematode extract, except for treatments tested at 1.5%, an additional 35 μL of distilled water was introduced to reach a total volume of 100 μL. Content of the well was sufficiently mixed with a pipette, to ensure proper distribution of both nematodes and treatment components; • 7. performing at least 6 replicates of every treatment. The flask containing the nematode colony was mixed by manual shaking every time before nematodes were introduced to the well. This way we ensure a somewhat homogenous nematode count and avoid nematodes settling at the bottom of the flask; • 8. keeping the whole ELISA plate in dark conditions for 24 hours after introduction of the treatment; and • 9. assessing nematode mortality 24 hours after treatment under stereoscope. Nematodes that were moving were considered alive. Nematodes that were not moving were poked with a fine brush, if they respond to the poking with slight movements, they were considered alive. If not, they were considered dead.
The only validity criterium was that nematode mortality in the negative controls should not exceed 10%.
The raw mortality data was analyzed using RStudio (version 1.4.1717). The data sets were subjected to Shapiro-Wilk test for normality (α=0.05). Data was not normally distributed; therefore, a Kruskal-Wallis test was applied. Where there was significance, a Wilcoxon rank sum t-test was performed for pairwise comparisons between treatment groups.

[1] = mean over replicates, 24 h, tested dose per Table 2
[2] = sum over replicates, 24 h, tested dose per Table 2

## CNC(=O)O/N=C(\SC)C(=O)N(C)C [Oxamyl]
[1]
  mean alive: 20.50
  mean dead: 22.17
Nematodes counted alive per replicate well, 24 h after treatment, tested dose per Table 2
  alive: 22 and 20 and 25 and 17 and 24 and 18 and 7 and 27 and 5 and 34 and 21 and 26
Nematodes counted dead per replicate well, 24 h after treatment, tested dose per Table 2 (5%, 1.5% or 1% w/v)
  Dead: 24 and 34 and 29 and 20 and 31 and 39 and 15 and 4 and 18 and 5 and 22 and 25
[2]
  total alive: 246
  total dead: 266
Tested dose per Table 2 (5%, 1.5% or 1% w/v)
  Mortality (%) 24 h post exposure: 50.76%
